Data from patent US12263248B2, “Compounds and compositions for intracellular delivery of therapeutic agents” (ModernaTX, Inc., priority 2018, dated 2025).

What was measured:
luciferase (Luc) mRNA [1] = test: Luc expression, whole body bioluminescence after intravenous administration to mice; assay type: in vivo; details: for Total Flux 3 hours / Total Flux 6 hours / Total Flux 24 hours: Luc mRNA
Procedure, shortened: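 Luc mRNA nanoparticle formulations given intravenously to mice (n=6) at 0.5 mg/kg; whole-body bioluminescence imaged at 3, 6 and 24 h. CD-1 mice received IP D-luciferin (200 μL of 15 mg/mL) 15 min before imaging; total flux quantified by region of interest.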

[2] = Particle size and polydispersity index of nanoparticle compositions (Zetasizer Nano ZS); assay type: physicochemical; details: Table 1A; for Size (nm): lipid:DSPC:cholesterol:PEG-DMG 50:10:38.5:1.5 mol %
Procedure, shortened: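 Nanoparticle compositions are diluted in 1×PBS, then size and polydispersity index are read on a Zetasizer Nano ZS instrument.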

luciferase (Luc) mRNA [3] = test: Luc expression in liver, lung, spleen and femur 6 hours after intravenous administration; assay type: in vivo; details: mice, intravenous, 0.5 mpk
Procedure, shortened: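 LNP-formulated mRNA given IV to mice (n=3) at 0.5 mpk; at 6 h, bioluminescence imaged ex vivo 15 min after IP D-luciferin (15 mg/mL, 200 μL), organs imaged within 25 min. Values are total flux by region of interest.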

[4] = Encapsulation efficiency of RNA (QUANT-IT RIBOGREEN RNA assay); assay type: physicochemical; details: Table 1A
Procedure, shortened: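 RiboGreen fluorescence (ex ~480, em ~520 nm) compared between intact samples and Triton X-100-lysed samples after 15 min at 37 °C in TE buffer, pH 7.5. Percent free RNA is the blank-corrected intact/disrupted ratio.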

[5] = Apparent (surface) pKa of the LNP formulation (TNS assay); assay type: physicochemical; details: Table 1A
Procedure, shortened: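 LNP (0.04 mg/mL mRNA) mixed with TNS reagent in 21 buffers spanning about pH 3-12, in triplicate; fluorescence plotted against pH as sigmoidal curve. Apparent pKa taken as […] curve inflection point; validated in 1× PBS and 20 mM Tris w/8% sucrose.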

IL-6, IP-10 = test: Cytokine induction in mice upon intravenous administration; assay type: in vivo; set-up: Cytokine induction IL-6 / Cytokine induction IP-10: unit not given here; details: 0.5 mpk, 6 hours; for Cytokine induction IL-6 / Cytokine induction IP-10: intravenous
Source text: The introduction of foreign material into a mammalian body induces an innate immune response that promotes cytokine production. Such immune responses to, for example, nanoparticle compositions including therapeutic and/or prophylactics, are undesirable. The induction of certain cytokines is thus measured to evaluate the […] of nanoparticle compositions. The concentrations of various cytokines in mice upon intravenous administration of nanoparticle compositions presented in Table 1A at a dosage of 0.5 mpk was measured at 6 hours. The standard MC3 formulation and a PBS control were also tested. As is evident in Table 7, IL-6 induction was highest for compositions including Compounds 1, 3, 9, 19, and 26, while IP-10 induction was highest for compositions including Compounds 3, 4, 7, 20, and 26. IL-6 induction was lowest for compositions including Compounds 4, 11, 12, and 28. IP-10 induction was lowest for compositions including Compounds 10, 11, 12, 13, 15, 17, and 18.

luciferase (Luc) mRNA [6] = test: Luc expression (total flux) after intramuscular administration; assay type: in vivo, mice; details: 6 hours after intramuscular administration, Luc mRNA and H10 mRNA
Method: In order to monitor how effectively various nanoparticle compositions deliver therapeutic and/or prophylactics to targeted cells, different nanoparticle compositions including a particular therapeutic and/or prophylactic (for example, a modified or naturally occurring RNA such as an mRNA) are prepared and administered to rodent populations. Mice are intravenously, intramuscularly, intraarterially, or intratumorally administered a single dose including a nanoparticle composition with a formulation such as those provided in Example 3. In some instances, mice may be made to inhale doses. Dose sizes may range from 0.001 mg/kg to 10 mg/kg, where 10 mg/kg describes a dose including 10 mg of a therapeutic and/or prophylactic in a nanoparticle composition for each 1 kg of body mass of the mouse. A control composition including PBS may also be employed.
Sample formulations including both modified luciferase (Luc) mRNA and H10 mRNA were prepared and administered intramuscularly and the resulting expression and immunogenicity were evaluated simultaneously. Formulations including compounds according to Formula (I), (IA), (IB), (II), (IIa), (IIb), (IIc), (IId), (IIe), (IIf), (IIg), (III), (VI), (VI-a), (VII), (VIII), (VIIa), (VIIIa), (VIIIb), (VIIb-1), (VIIb-2), (VIIb-3), (VIIc), (VIId), (VIIIc), or (VIIId) were prepared and administered at doses of 0.001 and 0.01 mpk (e.g., doses of 0.0005 mpk of a formulation including Luc mRNA and a formulation including H10 mRNA or doses of 0.005 mpk of a formulation including Luc mRNA and a formulation including H10 mRNA).
Sample formulations including modified luciferase (Luc) mRNA prepared and administered intramuscularly and the resulting expression and immunogenicity were evaluated simultaneously. Formulations including compounds according to Formula (I), (IA), (IB), (II), (IIa), (IIb), (IIc), (IId), (IIe), (IIf), (IIg), (III), (VI), (VI-a), (VII), (VIII), (VIIa), (VIIIa), (VIIIb), (VIIb-1), (VIIb-2), (VIIb-3), (VIIc), (VIId), (VIIIc), or (VIIId) were prepared and administered at dose of and 0.01 mpk.

| PDI [2] | Size (nm) [2] [nm] | EE (%) [4] [%] | pKa [5] | IL-6 induction (IL-6, IP-10; i.v., in words) | IP-10 induction (IL-6, IP-10; i.v., in words) | Cytokine induction IL-6 (IL-6, IP-10) | Cytokine induction IP-10 (IL-6, IP-10) | SMILES | Total Flux 3 hours (luciferase (Luc) mRNA [1]; mice, i.v., 0.5 mg/kg) | Total Flux 6 hours (luciferase (Luc) mRNA [1]; mice, i.v., 0.5 mg/kg) | Total Flux 24 hours (luciferase (Luc) mRNA [1]; mice, i.v., 0.5 mg/kg) | Total Flux Liver (luciferase (Luc) mRNA [3]) | Total Flux Lung (luciferase (Luc) mRNA [3]) | Total Flux Spleen (luciferase (Luc) mRNA [3]) | Total Flux Femur (luciferase (Luc) mRNA [3]) | Fold increase in total body Luc Flux relative to MC3 at 6 h (luciferase (Luc) mRNA [1]; Table 3A, i.v. administration) | flux at all timepoints measured (luciferase (Luc) mRNA [1]; mice, i.v., 0.5 mg/kg, 3, 6 and 24 hour, in words) | Total flux, 0.001 mpk Dose (luciferase (Luc) mRNA [6]; 0.001 mpk) [p/s] | Total flux, 0.01 mpk Dose (luciferase (Luc) mRNA [6]; 0.01 mpk) [p/s] |
| --- | --- | --- | --- | --- | --- | --- | --- | --- | --- | --- | --- | --- | --- | --- | --- | --- | --- | --- | --- |
| 0.13 | 129.6 | 92.47 | 5.97 | lowest | lowest | 0.14 | 44.84 | CCCCCCCCCOC(=O)CCCCCCCN(CCCCCCCC(=O)OC(CCCCCCCC)CCCCCCCC)C[C@@H](C)O [Compound 11, Heptadecan-9-yl (R)-8-((2-hydroxypropyl)(8-(nonyloxy)-8-oxooctyl)amino)octanoate] | 3.38E+09 | 7.11E+09 | 1.15E+08 | 8.03E+08 | 1.35E+07 | 1.04E+08 |  |  |  |  |  |
| 0.13 | 79.4 | 92.28 | 5.67 |  | lowest | 29.07 | 126.29 | CCCCCCCCCOC(=O)CCCCCCCN(CCCCCCCC(=O)OC(CCCCCCCC)CCCCCCCC)CC(O)CC (stereo not drawn) [Compound 13, Heptadecan-9-yl 8-((2-hydroxybutyl)(8-(nonyloxy)-8-oxooctyl)amino) octanoate] | 1.02E+08 | 1.56E+08 | 1.47E+06 | 2.25E+07 | 2.21E+05 | 7.09E+05 | 1.35E+05 |  |  |  |  |
| 0.094 | 111.1 | 92.47 | 5.58 |  | lowest | 64.65 | 184.30 | CCCCCCCCCOC(=O)CCCCCCCN(CCCCCCCC(=O)OC(CCCCCCCC)CCCCCCCC)CCOC [Compound 15, Heptadecan-9-yl 8-((2-methoxyethyl)(8-(nonyloxy)-8-oxooctyl)amino)octanoate] | 4.31E+08 | 4.41E+07 | 2.05E+06 | 6.23E+06 | 6.41E+04 | 9.01E+05 | 5.93E+04 |  |  |  |  |
| 0.16 | 119.0 | 91.32 | 5.52 |  |  | 32.01 | 206.75 | CCCCCCCCCOC(=O)CCCCCCCN(CCCCCCCC(=O)OC(CCCCCCCC)CCCCCCCC)CCCOC [Compound 16, Heptadecan-9-yl 8-((3-methoxypropyl)(8-(nonyloxy)-8-oxooctyl)amino) octanoate] | 2.58E+08 | 5.45E+08 | 2.37E+07 | 3.17E+07 | 4.18E+05 | 5.43E+06 | 2.55E+05 | 0.02 |  |  |  |
| 0.24 | 85.2 | 91.84 | 7.76 |  | lowest | 138.43 | 156.41 | CCCCCCCCCOC(=O)CCCCCCCN(CCCCCCCC(=O)OC(CCCCCCCC)CCCCCCCC)CCOCCN(C)C [Compound 17, Heptadecan-9-yl 8-((2-(2-(dimethylamino)ethoxy)ethyl) (8-(nonyloxy)-8-oxooctyl)amino)octanoate] | 7.72E+06 | 3.58E+06 | 6.79E+05 | 5.52E+05 | 9.95E+04 | 5.58E+06 | 9.55E+04 |  | significantly lower flux |  |  |
| 0.22 | 80.2 | 96.00 | 6.21 |  |  | 90.54 | 976.50 | CCCCCCCCCOC(=O)CCCCCCCN(CCCCCCCC(=O)OC(CCCCCCCC)CCCCCCCC)C1CCCCC1O (stereo not drawn) [Compound 22, Heptadecan-9-yl 8-((2-hydroxycyclohexyl)(8-(nonyloxy)-8-oxooctyl)amino)octanoate] | 6.57E+08 | 3.89E+08 | 2.73E+07 | 4.00E+07 | 4.73E+05 | 1.57E+06 | 1.16E+05 |  |  |  |  |

| SMILES | PDI [2] | Size (nm) [2] [nm] | EE (%) [4] [%] | pKa [5] | IL-6 induction (IL-6, IP-10; i.v., in words) | IP-10 induction (IL-6, IP-10; i.v., in words) | Cytokine induction IL-6 (IL-6, IP-10) | Cytokine induction IP-10 (IL-6, IP-10) | Total Flux 3 hours (luciferase (Luc) mRNA [1]; mice, i.v., 0.5 mg/kg) | Total Flux 6 hours (luciferase (Luc) mRNA [1]; mice, i.v., 0.5 mg/kg) | Total Flux 24 hours (luciferase (Luc) mRNA [1]; mice, i.v., 0.5 mg/kg) | Total Flux Liver (luciferase (Luc) mRNA [3]) | Total Flux Lung (luciferase (Luc) mRNA [3]) | Total Flux Spleen (luciferase (Luc) mRNA [3]) | Total Flux Femur (luciferase (Luc) mRNA [3]) | Fold increase in total body Luc Flux relative to MC3 at 6 h (luciferase (Luc) mRNA [1]; Table 3A, i.v. administration) | flux at all timepoints measured (luciferase (Luc) mRNA [1]; mice, i.v., 0.5 mg/kg, 3, 6 and 24 hour, in words) | Total flux, 0.001 mpk Dose (luciferase (Luc) mRNA [6]; 0.001 mpk) [p/s] | Total flux, 0.01 mpk Dose (luciferase (Luc) mRNA [6]; 0.01 mpk) [p/s] |
| --- | --- | --- | --- | --- | --- | --- | --- | --- | --- | --- | --- | --- | --- | --- | --- | --- | --- | --- | --- |
| CCCCCCCCCCCCN(CCO)CCCCCCCCCCCC(=O)OC [Compound 137, Methyl 12-(dodecyl(2-hydroxyethyl)amino)dodecanoate] |  |  |  | 7.06 |  |  | 130.82 | 234.35 | 3.77E+05 | 5.02E+05 | 4.49E+05 | 6.48E+04 | 1.66E+04 | 1.32E+05 | 2.02E+04 |  |  | 7.57E+04 | 8.09E+04 |
